# Source: ChEMBL document CHEMBL1150879, “Synthesis of (+/-)-cassumunins A and B, new curcuminoid antioxidants having protective activity of the living cell against oxidative damage” (J Nat Prod, 1998)
# System: Thymocyte
# Test: Inhibition of H2O2-induced cell death of rat thymocyte assessed as cell viability
# Type: functional, cell-based
row,SMILES,IC50 [nM]
1,COc1cc(/C=C/C(=O)CC(=O)/C=C/c2cc(OC)c(O)c(C(C)/C=C/c3ccc(OC)c(OC)c3)c2)ccc1O (stereo not drawn) [CASSUMUNIN A],170
2,COc1cc(/C=C/C(=O)CC(=O)/C=C/c2cc(OC)c(O)c(C(C)/C=C/c3cc(OC)c(OC)cc3OC)c2)ccc1O (stereo not drawn) [CASSUMUNIN B],220
3,COc1cc(/C=C/C(=O)CC(=O)/C=C/c2ccc(O)c(OC)c2)ccc1O [CURCUMIN],1020
